Laboratory results as given in PMC7667029, “A Targeted Computational Screen of the SWEETLEAD Database Reveals FDA-Approved Compounds with Anti-Dengue Viral Activity” (mBio, 2020).
“Also recorded” adds a separate entry of the source.

How the values were obtained:
[1] = test system: DENV-2 luciferase-expressing replicon; assay: Replicon luciferase assay in Huh7 cells; format: cell-based, dengue virus; settings: 3 μM vandetanib, Huh7, up to 52 h posttransfection
Method: (§1) FIG 5 Vandetanib and spautin-1 inhibit dengue maturation and egress in a VPS34-independent manner. […] Cells were pretreated for 1 h, infected for 1 h at an MOI of 0.5 PFU/cell, and posttreated for an additional 23 h. N = 4, one-way ANOVA with Dunnett’s multiple-comparison test. ns, not significant (P > 0.05); **, P < 0.01; ****, P < 0.0001. (C) Huh7 cells transfected with a luciferase-expressing RNA replicon were treated with 3 μM vandetanib (orange) or 1% DMSO vehicle control (black) for 1 h prior to transfection and up to 52 h posttransfection. Luciferase intensity was quantified as a measure of viral protein abundance. Luciferase intensity was shown as relative light units (RLU). The use of an RNA replicon that is directly transfected into cells reflects only translation and RNA replication steps of viral infection, not viral packaging or cell exit. N = 4, two-way ANOVA with Sikak’s multiple-comparison test. […] (D) VPS34 was not required for spautin-1 or vandetanib anti-dengue activity. […]
A dengue replicon derived from the dengue virus strain 16681 expressing Renilla luciferase and dengue nonstructural proteins has been previously established ([7], [64]). […] Transfected cells were harvested and analyzed using the Renilla luciferase assay system (Promega BioSystems). Luciferase intensity was measured with a GloMax luminometer (10-s signal integration; Promega BioSystems).

[2] = ref PubChem database, cited from earlier work
dengue virus = assay: Antiviral activity in VPS34 knockout Huh7 cells; format: cell-based; settings: 5 μM compound, MOI 0.5, 24 hpi
Method: as §1, with “activity. Wild-type and VPS34 knockout Huh7 cells were treated with 5 μM spautin-1, 5 μM vandetanib, or DMSO. Cells were pretreated, infected at an MOI of 0.5, and posttreated as described above for panels A and B. At 24 hpi, cellular supernatant was collected and titered by plaque assay. N ≥ 3. One-way ANOVA with Dunnett’s multiple-comparison test; *, P < 0.05; **, P < 0.01; ***, P < 0.001; ****, P < 0.0001.” for “activity.”

DENV2 = assay: Antiviral activity in DENV2-infected Huh7 cells, infectious virus in supernatant by plaque assay; format: cell-based, dengue virus; settings: Dengue virus, Huh-7, DENV2-infected Huh7 cells

COc1cc2c(Nc3ccc(Br)cc3F)ncnc2cc1OCC1CCN(C)CC1 [Vandetanib, vandetanib]
Luciferase production of replicon [1]: no effect on luciferase production; also recorded: no significant differences | LD50 ([2]; Oral, single dose): > 1000 mg/kg | Acute toxicity in words (Table S2) ([2]; healthy mice): only mildly toxic | Antiviral activity in VPS34 knockout cells (dengue virus): retained significant antiviral activity; also recorded: retained their ability to limit dengue virus egress | IC90 (DENV2; from dose-response curve fit, 24 hpi): 3.6 µM | IC50 (DENV2; single infectious cycle, plaque assay at 24 hpi, read-out: IC50 of viral inhibition (infectious extracellular virus)): 1.6 µM
